Assay results from paper PMC10142505, “Synthesis, Evaluation of Enzyme Inhibition and Redox Properties of Potential Dual COX-2 and 5-LOX Inhibitors” (Pharmaceuticals, 2023).

Columns and labels:
[1] = target: T1, COX-2 human recombinant enzyme (Homo sapiens, UniProt P35354); experiment: Fluorometric COX-2 inhibitor screening kit; type: biochemical; settings: IC50 ± standard error
T1 construct: purchased Abcam ab283401
T1 sequence (P35354 18-604): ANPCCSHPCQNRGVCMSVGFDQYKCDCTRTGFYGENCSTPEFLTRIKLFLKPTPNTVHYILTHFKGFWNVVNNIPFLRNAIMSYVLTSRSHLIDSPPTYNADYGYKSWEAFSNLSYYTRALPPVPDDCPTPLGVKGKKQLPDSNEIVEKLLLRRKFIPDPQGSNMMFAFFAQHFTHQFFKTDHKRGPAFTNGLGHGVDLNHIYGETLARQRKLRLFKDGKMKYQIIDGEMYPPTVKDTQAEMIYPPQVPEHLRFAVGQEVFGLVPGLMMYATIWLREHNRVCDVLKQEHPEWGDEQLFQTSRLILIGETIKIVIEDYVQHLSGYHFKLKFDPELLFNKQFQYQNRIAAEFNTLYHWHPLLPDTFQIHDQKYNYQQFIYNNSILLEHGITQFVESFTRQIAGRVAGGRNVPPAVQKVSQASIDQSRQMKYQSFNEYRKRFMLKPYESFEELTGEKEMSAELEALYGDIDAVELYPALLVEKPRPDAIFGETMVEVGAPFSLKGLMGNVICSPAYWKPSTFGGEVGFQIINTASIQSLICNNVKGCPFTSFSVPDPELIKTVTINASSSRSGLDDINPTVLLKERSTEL
Description: The COX-1 and COX-2 inhibitory activates of the synthesized compounds were tested using fluorometric COX-1 (Catalog Number: ab204698) and COX-2 (Catalog Number: ab283401) inhibitor screening kits (Abcam, United Kingdom). These assays are based on the fluorometric detection of Prostaglandin G2, generated by the COX enzyme. The experiment was conducted according to the manufacturer’s instructions. Each assay consists of a COX Assay Buffer, COX Probe (in DMSO), COX Cofactor (in DMSO), arachidonic acid and NaOH. The COX-1 inhibitor screening kit contains COX-1 ovine enzyme and COX-1 inhibitor SC560 (dissolved in DMSO), while the COX-2 inhibitor screening kit contains COX-2 human recombinant enzyme and COX-2 inhibitor Celecoxib (dissolved in DMSO). The tested compounds were dissolved in DMSO and further diluted five times with the COX Assay Buffer. The Inhibitor Control (IC) was prepared by adding 2 µL of COX-1/COX-2 inhibitor and 8 µL of COX Assay Buffer into assigned wells, while the Solvent Control (SC) was prepared by adding 2 µL of DMSO and 8 µL of COX Assay Buffer into assigned wells and the Sample (S) and Enzyme Control (EC) were prepared by adding 10 µL of diluted tested compounds or COX Assay Buffer into assigned wells. The Reaction Master Mix (COX Assay Buffer, COX Probe, Diluted COX Cofactor and COX-1/COX-2 Enzyme) was prepared according to instructions and 80 µL of the Reaction Master Mix was added into each well. Meanwhile, a diluted arachidonic acid/NaOH solution was prepared and 10 µL was added into each well using a multi-channel pipette to initiate all the reactions at the same time. […] The EC, SC, IC and tested compounds at all concentrations were analyzed in triplicates. Two points (T1 and T2) in the linear range of the plot were chosen and corresponding fluorescence values (RFU1 and RFU2) were obtained. The slope for all samples was calculated by dividing ΔRFU (RFU2-RFU1) by time Δt (T2−T1). The percentage of inhibition was calculated as follows: % Relative Inhibition=Slope of EC−Slope of S/Slope of EC∗100
(§1) Fluorescence measurements were performed on a BioTek Synergy LX multi-mode reader (Winooski, VT, USA).

5-LOX enzyme = target: T2, 5-LOX enzyme (Homo sapiens, UniProt P09917); experiment: Fluorometric 5-LOX inhibitor screening kit; type: biochemical; settings: IC50 ± standard error
T2 construct: purchased MyBioSource MBS846911
T2 sequence (P09917 1-674): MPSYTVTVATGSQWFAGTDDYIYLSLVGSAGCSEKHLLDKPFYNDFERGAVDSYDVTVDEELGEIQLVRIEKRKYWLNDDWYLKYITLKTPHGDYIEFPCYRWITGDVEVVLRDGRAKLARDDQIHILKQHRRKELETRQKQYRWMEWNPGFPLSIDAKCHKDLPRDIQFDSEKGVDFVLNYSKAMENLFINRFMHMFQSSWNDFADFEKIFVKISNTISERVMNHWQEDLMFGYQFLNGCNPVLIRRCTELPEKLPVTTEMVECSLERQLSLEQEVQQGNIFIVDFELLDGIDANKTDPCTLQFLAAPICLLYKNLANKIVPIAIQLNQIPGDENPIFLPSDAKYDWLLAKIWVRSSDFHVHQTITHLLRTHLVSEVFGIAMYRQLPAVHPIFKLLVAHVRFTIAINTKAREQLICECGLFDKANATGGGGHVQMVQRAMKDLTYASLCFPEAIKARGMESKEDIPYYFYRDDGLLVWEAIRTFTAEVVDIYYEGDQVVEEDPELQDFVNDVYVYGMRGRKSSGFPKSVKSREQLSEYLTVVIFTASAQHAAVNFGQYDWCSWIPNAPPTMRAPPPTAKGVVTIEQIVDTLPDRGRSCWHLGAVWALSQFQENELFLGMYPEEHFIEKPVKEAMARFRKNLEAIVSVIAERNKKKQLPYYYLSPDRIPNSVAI
Description: The 5-LOX inhibitory activates of synthesized compounds were tested using a fluorometric 5-LOX inhibitor screening kit (MyBioSource, San Diego, CA, USA; Catalog Number: MBS846911). This assay is based on the fluorometric detection of the intermediate generated by the 5-LOX enzyme. The experiment was conducted according to the manufacturer’s instructions. […] The tested compounds were dissolved in DMSO. Test solutions were added to corresponding wells at an amount of 2 µL out of the final 100 µL reaction volume per well. […] The volume was adjusted to 40 µL in each well by adding 38 µL of LOX Assay Buffer. The Reaction Mix (containing LOX Assay Buffer, LOX Probe and 5-LOX Enzyme) was prepared according to the instructions and 40 µL of the Reaction Mix was added into each well. The plate was incubated at room temperature for 10 min before adding the substrate diluted in the LOX Assay Buffer (1:2500 dilution factor). The final substrate solution was added at an amount of 20 µL into each well using a multi-channel pipette to initiate all the reactions at the same time. […] The EC, SC, IC and tested compounds at all concentrations were analyzed in triplicates. Two points (T1 and T2) in the linear range of the plot were chosen and corresponding fluorescence values (RFU1 and RFU2) were obtained. The slope for all samples was calculated by dividing ΔRFU (RFU2-RFU1) by the time Δt (T2−T1). The percentage of inhibition was calculated according to the equation mentioned in Section 3.3.1.
as §1

Question: Which results are given for `COc1ccc2c(c1)c(CNC(=O)NO)c(C)n2C(=O)c1ccc(Cl)cc1` [Compound 1, N’-hydroxy-N-[(1-(4-chlorobenzoyl)-5-methoxy-2-methyl-3-indolyl)methyl]urea]?
Answer: IC50 [1]: 18.3 ± 2.17 µM; IC50 (5-LOX enzyme): 5.71 ± 0.15 µM

Question: `CC(NC(=O)NO)c1ccc(-c2ccccc2)c(F)c1` (centres unmarked) [Compound 2] was tested. Which IC50 [1] did it give?
Answer: Its IC50 is 6.72 ± 0.79 µM.

Question: What about the IC50 (5-LOX enzyme) of the same compound?
Answer: Its IC50 is 1.62 ± 0.67 µM.

Question: What does the source list for `O=C(NO)NCc1ccccc1Nc1c(Cl)cccc1Cl` [Compound 3, N’-hydroxy-N-[(2-(2,6-dichloroanilino)phenyl)methyl]urea]?
Answer: IC50 [1]: 5.26 ± 0.34 µM; IC50 (5-LOX enzyme): 1.73 ± 0.64 µM

Question: How did the IC50 [1] turn out when `COC(=O)C(Cc1c[nH]cn1)NC(=O)c1cc(C(C)(C)C)c(O)c(C(C)(C)C)c1` (centres unmarked) [Compound 4, 2-(3,5-di-tert-butyl-4-hydroxy-benzoylamino)-3-(1H-imidazol-4-yl)-propionic acid methyl ester] was run?
Answer: Its IC50 is over 100 µM.

Question: And the IC50 (5-LOX enzyme)?
Answer: The IC50 was 8.1 ± 2.12 µM.

Question: With `COC(=O)CNC(=O)c1cc(C(C)(C)C)c(O)c(C(C)(C)C)c1` [Compound 5, (3,5-di-tert-butyl-4-hydroxy-benzoylamino)-acetic acid methyl ester] as the compound, how does the IC50 [1] read?
Answer: Its IC50 is 10.6 ± 0.8 µM.

Question: And the IC50 (5-LOX enzyme)?
Answer: Its IC50 is 9.3 ± 1.87 µM.

Question: How did the IC50 [1] turn out when `C=CCNC(=O)c1cc(C(C)(C)C)c(O)c(C(C)(C)C)c1` [Compound 6, N-allyl-3,5-di-tert-butyl-4-hydroxy-benzamide] was run?
Answer: The IC50 was 6.89 ± 0.83 µM.

Question: What about the IC50 (5-LOX enzyme) of the same compound?
Answer: The IC50 was 53.8 ± 11.9 µM.

Question: How did the IC50 [1] turn out when `C#CCNC(=O)c1cc(C(C)(C)C)c(O)c(C(C)(C)C)c1` [Compound 7, 3,5-di-tert-butyl-4-hydroxy-N-prop-2-ynyl-benzamide] was run?
Answer: Its IC50 is over 100 µM.

Question: And the IC50 (5-LOX enzyme)?
Answer: The IC50 was 12.6 ± 3.36 µM.

Question: With `CCOc1ccccc1NC(=O)N(C)C` [Compound 8, 3-(2-ethoxy-phenyl)-1,1-dimethyl-urea] as the compound, how does the IC50 [1] read?
Answer: The IC50 was over 100 µM.

Question: And the IC50 (5-LOX enzyme)?
Answer: Its IC50 is 14.5 ± 3.62 µM.

Question: How did the IC50 [1] turn out when `CN(C)C(=O)Nc1ccccc1C(=O)O` [Compound 9, 2-(3,3-dimethyl-ureido)-benzoic acid] was run?
Answer: Its IC50 is over 100 µM.

Question: What about the IC50 (5-LOX enzyme) of the same compound?
Answer: The IC50 was over 100 µM.

Question: `CCOc1ccccc1NC(=O)Nc1ccc([N+](=O)[O-])cc1` [Compound 10, 1-(2-ethoxy-phenyl)-3-(4-nitro-phenyl)-urea] was tested. Which IC50 [1] did it give?
Answer: Its IC50 is over 100 µM.

Question: And the IC50 (5-LOX enzyme)?
Answer: The IC50 was 13 ± 2.67 µM.

Question: `CC(=O)N(O)C(C)c1ccc(CC(C)C)cc1` (centres unmarked) [Compound 11] was tested. Which IC50 [1] did it give?
Answer: The IC50 was 36.2 ± 3.08 µM.

Question: And the IC50 (5-LOX enzyme)?
Answer: Its IC50 is 1.04 ± 0.22 µM.

Question: Which results are given for `COc1ccc2cc(C(C)N(O)C(C)=O)ccc2c1` (centres unmarked) [Compound 12, N-hydroxy-N-[1-(6-methoxy-naphthalen-2-yl)-ethyl]-acetamide]?
Answer: IC50 [1]: 83.4 ± 4.37 µM; IC50 (5-LOX enzyme): 1.29 ± 0.1 µM

Question: Which IC50 [1] does the source give for `CC(C)(C)c1cc(C=C2SC(=S)N(N)C2=O)cc(C(C)(C)C)c1O` [Compound 13, 3-amino-5-(3,5-di-tert-butyl-4-hydroxy-benzylidene)-2-thioxo-thiazolidin-4-one] here?
Answer: The IC50 was over 100 µM.

Question: What about the IC50 (5-LOX enzyme) of the same compound?
Answer: Its IC50 is 13.6 ± 3.54 µM.
